Source: PubChem BioAssay (NCI)
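1) Cells in 96-well plates. 2) Compound, 48 h, 5 concentrations. 3) Linear interpolation between surrounding doses. 4) Unreached endpoint = highest concentration. TGI is the concentration that stops growth completely.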

Tests used:
Test in all cases: DTP human tumour cell line panel, 48 h
[1] = tested on: MCF7 breast
[2] = tested on: M14 melanoma
[3] = tested on: COLO 205 colon
[4] = tested on: A498 renal
[5] = tested on: HT29 colon
[6] = tested on: HCC-2998 colon
[7] = tested on: MOLT-4 leukemia
[8] = tested on: T-47D breast
[9] = tested on: TK-10 renal
[10] = tested on: SK-MEL-5 melanoma
[11] = tested on: ACHN renal
[12] = tested on: RXF 393 renal
[13] = tested on: DU-145 prostate
[14] = tested on: OVCAR-5 ovarian
[15] = tested on: SF-295 CNS
[16] = tested on: IGROV1 ovarian
[17] = tested on: HOP-62 NSCLC
[18] = tested on: K-562 leukemia
[19] = tested on: OVCAR-4 ovarian
[20] = tested on: HCT-15 colon
[21] = tested on: EKVX NSCLC
[22] = tested on: SR leukemia
[23] = tested on: SK-MEL-2 melanoma
[24] = tested on: KM12 colon
[25] = tested on: SNB-75 CNS
[26] = tested on: OVCAR-3 ovarian
[27] = tested on: U251 CNS
[28] = tested on: SF-268 CNS
[29] = tested on: OVCAR-8 ovarian
[30] = tested on: SK-OV-3 ovarian
[31] = tested on: RPMI-8226 leukemia
[32] = tested on: LOX IMVI melanoma
[33] = tested on: CCRF-CEM leukemia
[34] = tested on: SNB-19 CNS
[35] = tested on: NCI-H522 lung
[36] = tested on: 786-0 renal
[37] = tested on: NCI-H23 lung
[38] = tested on: MDA-MB-435
[39] = tested on: UO-31 renal
[40] = tested on: UACC-62 melanoma
[41] = tested on: NCI-H460 lung
[42] = tested on: BT-549 breast
[43] = tested on: UACC-257 melanoma
[44] = tested on: HCT-116 colon
[45] = tested on: NCI-H226 lung
[46] = tested on: NCI/ADR-RES ovarian
[47] = tested on: SF-539 CNS
[48] = tested on: SW-620 colon
[49] = tested on: MDA-MB-231 breast
[50] = tested on: MALME-3M melanoma
[51] = tested on: A549 NSCLC
[52] = tested on: CAKI-1 renal
[53] = tested on: PC-3 prostate
[54] = tested on: SN12C renal
[55] = tested on: SK-MEL-28 melanoma
[56] = tested on: MDA-N
[57] = tested on: HS 578T breast
[58] = tested on: HOP-92 NSCLC

C[C@]12CC[C@H](O)CC1=CC[C@@H]1[C@@H]2CC[C@]2(C)NC(=O)/C(=C\c3ccccc3)C[C@@H]12
TGI [1]: 47.3 µM | TGI [2]: 29.2 µM | TGI [3]: 31.9 µM | TGI [4]: 29.2 µM | TGI [5]: 31.5 µM | TGI [6]: 30.7 µM | TGI [7]: 98.5 µM | TGI [8]: 47 µM | TGI [9]: 83.2 µM | TGI [10]: 25.7 µM | TGI [11]: 43.1 µM | TGI [12]: 27.9 µM | TGI [13]: 33.5 µM | TGI [14]: 27.9 µM | TGI [15]: 33.2 µM | TGI [16]: 33.8 µM | TGI [17]: 29 µM | TGI [18]: > 100 µM | TGI [19]: 60.8 µM | TGI [20]: 37.8 µM | TGI [21]: 28.4 µM | TGI [22]: > 100 µM | TGI [23]: 31.8 µM | TGI [24]: 30.3 µM | TGI [25]: 48.5 µM | TGI [26]: 26.2 µM | TGI [27]: 30.3 µM | TGI [28]: 30.7 µM | TGI [29]: 47.6 µM | TGI [30]: 35.5 µM | TGI [31]: 56 µM | TGI [32]: 42.5 µM | TGI [33]: 48.5 µM | TGI [34]: 27.8 µM | TGI [35]: 23.1 µM | TGI [36]: 52 µM | TGI [37]: 40.7 µM | TGI [38]: 37.8 µM | TGI [39]: 25.8 µM | TGI [40]: 38.6 µM | TGI [41]: 68.9 µM | TGI [42]: 32.7 µM | TGI [43]: 48.6 µM | TGI [44]: 37 µM | TGI [45]: 34.3 µM | TGI [46]: 53 µM | TGI [47]: 30.2 µM | TGI [48]: 34.6 µM | TGI [49]: 38.9 µM | TGI [50]: 30.3 µM | TGI [51]: 33.4 µM | TGI [52]: 73.1 µM | TGI [53]: 29.5 µM | TGI [54]: 66 µM | TGI [55]: 32 µM | TGI [56]: 69.8 µM

O=C(NC(CCCCN1C(=O)c2ccccc2C1=O)P(=O)(Oc1ccccc1)Oc1ccccc1)OCc1ccccc1 (configuration not stated)
TGI [1]: > 100 µM | TGI [2]: > 100 µM | TGI [3]: > 100 µM | TGI [5]: > 100 µM | TGI [6]: > 100 µM | TGI [8]: > 100 µM | TGI [9]: > 100 µM | TGI [10]: > 100 µM | TGI [11]: > 100 µM | TGI [12]: > 100 µM | TGI [13]: > 100 µM | TGI [14]: > 100 µM | TGI [15]: > 100 µM | TGI [16]: > 100 µM | TGI [17]: > 100 µM | TGI [21]: > 100 µM | TGI [22]: > 100 µM | TGI [23]: > 100 µM | TGI [24]: > 100 µM | TGI [25]: > 100 µM | TGI [26]: > 100 µM | TGI [27]: > 100 µM | TGI [28]: > 100 µM | TGI [29]: > 100 µM | TGI [30]: > 100 µM | TGI [31]: > 100 µM | TGI [34]: > 100 µM | TGI [35]: > 100 µM | TGI [36]: > 100 µM | TGI [37]: > 100 µM | TGI [38]: > 100 µM | TGI [39]: > 100 µM | TGI [40]: > 100 µM | TGI [57]: > 100 µM | TGI [41]: > 100 µM | TGI [42]: > 100 µM | TGI [43]: > 100 µM | TGI [58]: > 100 µM | TGI [45]: > 100 µM | TGI [46]: > 100 µM | TGI [47]: > 100 µM | TGI [48]: > 100 µM | TGI [50]: > 100 µM | TGI [51]: > 100 µM | TGI [52]: > 100 µM | TGI [53]: > 100 µM | TGI [54]: > 100 µM | TGI [55]: > 100 µM | TGI [56]: > 100 µM

Oc1cc(O)c2c(c1)OC(c1ccc(O)c(O)c1)C(O)C2c1c(O)cc(O)c2c1OC(c1ccc(O)c(O)c1)C(O)C2 (configuration not stated)
TGI [1]: > 100 µM | TGI [2]: > 100 µM | TGI [3]: > 100 µM | TGI [4]: > 100 µM | TGI [5]: > 100 µM | TGI [8]: > 100 µM | TGI [9]: > 100 µM | TGI [10]: > 100 µM | TGI [11]: > 100 µM | TGI [12]: > 100 µM | TGI [13]: > 100 µM | TGI [14]: > 100 µM | TGI [15]: > 100 µM | TGI [16]: > 100 µM | TGI [17]: > 100 µM | TGI [19]: > 100 µM | TGI [20]: > 100 µM | TGI [21]: > 100 µM | TGI [23]: > 100 µM | TGI [24]: > 100 µM | TGI [25]: > 100 µM | TGI [26]: > 100 µM | TGI [27]: > 100 µM | TGI [28]: > 100 µM | TGI [29]: > 100 µM | TGI [30]: > 100 µM | TGI [31]: > 100 µM | TGI [32]: > 100 µM | TGI [34]: > 100 µM | TGI [35]: > 100 µM | TGI [36]: > 100 µM | TGI [37]: > 100 µM | TGI [38]: > 100 µM | TGI [39]: > 100 µM | TGI [40]: > 100 µM | TGI [57]: > 100 µM | TGI [41]: > 100 µM | TGI [42]: > 100 µM | TGI [43]: > 100 µM | TGI [44]: > 100 µM | TGI [58]: > 100 µM | TGI [45]: > 100 µM | TGI [46]: > 100 µM | TGI [47]: > 100 µM | TGI [48]: > 100 µM | TGI [49]: > 100 µM | TGI [50]: > 100 µM | TGI [51]: > 100 µM | TGI [52]: 67.5 µM | TGI [53]: > 100 µM | TGI [54]: > 100 µM | TGI [55]: > 100 µM | TGI [56]: > 100 µM

COc1cc(/C=N/n2c(C)n[nH]c2=O)cc(OC)c1OC
TGI [1]: > 100 µM | TGI [2]: > 100 µM | TGI [3]: > 100 µM | TGI [4]: > 100 µM | TGI [5]: > 100 µM | TGI [6]: > 100 µM | TGI [7]: > 100 µM | TGI [8]: > 100 µM | TGI [11]: > 100 µM | TGI [12]: > 100 µM | TGI [14]: > 100 µM | TGI [15]: > 100 µM | TGI [17]: > 100 µM | TGI [18]: > 100 µM | TGI [19]: > 100 µM | TGI [20]: > 100 µM | TGI [21]: > 100 µM | TGI [23]: > 100 µM | TGI [24]: > 100 µM | TGI [25]: > 100 µM | TGI [26]: > 100 µM | TGI [27]: > 100 µM | TGI [28]: > 100 µM | TGI [29]: > 100 µM | TGI [30]: > 100 µM | TGI [33]: > 100 µM | TGI [34]: > 100 µM | TGI [36]: > 100 µM | TGI [37]: > 100 µM | TGI [38]: > 100 µM | TGI [39]: > 100 µM | TGI [40]: > 100 µM | TGI [57]: 49.7 µM | TGI [41]: > 100 µM | TGI [42]: > 100 µM | TGI [43]: > 100 µM | TGI [44]: > 100 µM | TGI [45]: > 100 µM | TGI [46]: > 100 µM | TGI [47]: > 100 µM | TGI [48]: > 100 µM | TGI [49]: > 100 µM | TGI [50]: > 100 µM | TGI [51]: > 100 µM | TGI [52]: > 100 µM | TGI [53]: > 100 µM | TGI [54]: > 100 µM | TGI [55]: > 100 µM | TGI [56]: > 100 µM
